Values quoted from earlier work in publication PMC4141160, “Peptide Inhibitor of Complement C1, a Novel Suppressor of Classical Pathway Activation: Mechanistic Studies and Clinical Potential” (Frontiers in Immunology, 2014).

Key:
purified C1q = molecular target: purified C1q; design: method as in PMID 22906481; conditions: surface plasmon resonance, read-out: mean equilibrium dissociation constant (KD)
CLR of C1q = conditions: ELISA
C1q = system: C1q; design: method as in PMID 20728940
transfused human RBCs = system: transfused human RBCs; design: method as in PMID 12576307; conditions: mouse
C4a = conditions: single i.v. injection at 30 mg/kg; ELISA

## IALILEPICCQERAA [PA]
Classical pathway
  Classical pathway inhibition values using 0.77 mM peptide: 85%
Purified C1q
  Kd: 33.3 nM
CLR of C1q
  binding to the CLR of C1q: specifically bind to the CLR of C1q

## PAICQRAEIEACILL [Δ8–22, CPP1 with central region removed, functional peptide of 15 residues]
Classical pathway
  Classical pathway inhibition values using 0.77 mM peptide: 70%
Alternative pathway
  effect on the alternative pathway: minimal effect

## PAICQRATATLGTVGSNTSGTTEIEACILL [CPP1, 30-residue PIC1 derivative from the HNP-1 homology region of astrovirus CP]
C1q
  inhibition of the binding of CP to C1q: inhibited the binding of CP to C1q
Classical pathway
  Classical pathway inhibition values using 0.77 mM peptide: 50%
C1
  inhibition of C1 activation, as assayed by C1s cleavage: inhibited C1 activation

## sCR1: soluble complement receptor 1
Transfused human RBCs
  hemolysis and C3 and C4 deposition on transfused human RBCs: temporarily inhibit hemolysis as well as C3 and C4 deposition

B1: TNT009: humanized monoclonal analog of TNT003 (antibody, chains of the INN, looked up, V domains shown)
VH: EVQLVESGGGLVKPGGSLRLSCAASGFTFSNYAMSWVRQAPGKGLEWVATISSGGSHTYYLDSVKGRFTISRDNSKNTLYLQMNSLRAEDTALYYCARLFTGYAMDYWGQGTLVTVSS
VL: QIVLTQSPATLSLSPGERATMSCTASSSVSSSYLHWYQQKPGKAPKLWIYSTSNLASGVPSRFSGSGSGTDYTLTISSLQPEDFATYYCHQYYRLPPITFGQGTKLEIK
C4a
  in vivo generation of C4a: inhibited the in vivo generation of C4a
